From patent US8652439B2, “Compositions of HSP60 peptides and viral antigens for vaccination and diagnosis” (priority 2005, dated 2014)
“Also recorded” adds a separate entry of the source.

How the values were obtained:
MCMV [1] = assay: Immunization after MCMV challenge in combination with Gancyclovir; MCMV-DNA PCR in salivary glands; assay type: in vivo, BALB/c mice; details: day 30 after challenge; GCV i.p. with or without one immunization on day 6
Protocol: DNA was extracted from naïve and infected spleens and salivary gland using QiAmp Tissue Kit (QIAGEN Inc. Chatsworth, Calif., USA), according to appropriate QiAmp protocols. DNA oligonucleotide primers were synthesized according to the published sequence of MCMV gB gene (Rapp et al., 1992). […]. This gB gene primer pair amplifying a 356 bp segment was found the most sensitive in previous studies (Palmon et al., 1996). For gene amplification, 1 μg of DNA sample was added to the reaction mixture containing 200 μM each dNTP, 100 pmol each primer, 1.0 mM MgSO4, 10 mM KCl, 10 mM (NH4)2SO4, 20 mM Tris-HCl (pH 8.8), 0.1% Triton X-100 and 2 U of vent polymerase (Biolabs) in a total reaction volume of 50 μl each. Samples were amplified for 30 cycles in an automated thermal cycler (Perkin Elmer Cetus, USA). Each cycle entailed denaturation at 94° C. for 60 sec, annealing at 68° C. for 90 sec and primer extension at 72° C. for 120 sec. PCR products were electrophoretically separated on 1.5% agarose gel, stained with ethidium bromide, and photographed. The lower limit of detection for this method under the experimental conditions was 5 femtograms of viral DNA corresponding to about 20 copies of the MCMV genome (Palmon et al., 1996).
3-week old BALB/c mice were challenged i.p. with 5×10^4 pfu of MCMV (day 0). On day 6, mice were immunized once with IFA alone, 89pep or p458-89pep emulsified in IFA, as described above. Mice were treated with 100 μg of the anti viral medication Gancyclovir (GCV, Roche, Basel, Switzerland) i.p. on days 1, 2, 3, 4, 8, 9, 10 and 11 after challenge. Mice were sacrificed on day 30 after challenge and MCMV-DNA was measured by a PCR assay in the salivary glands, as specified above (FIG. 14A).

MCMV [2] = assay: Infectious MCMV titers in salivary gland of immunized mice after MCMV challenge (plaque assay); assay type: in vivo, BALB/c mice; details: for Infectious MCMV titer in salivary gland: immunized twice, peptides in IFA
[3] = tested on: salivary gland mononuclear cells; assay: IFNγ-positive salivary gland mononuclear cells 28 days after MCMV challenge of vaccinated mice; assay type: in vivo, BALB/c mice; details: 28 days after virus challenge of immunized mice; 8 hr 89pep stimulation
IFN-γ = IFN-γ secretion of splenocytes from mice immunized with p15 conjugates, stimulated in vitro with p15; assay type: in vivo; details: spleens 10 days after immunization; p15 25 μg/ml, 3 days
Protocol: (§1) Mice were immunized with the following peptides as described in Example 8 using the following peptides: p15 (SEQ ID NO:11), p32 (SEQ ID NO:13), Ec27-p15 ([…], SEQ ID NO:77), and Mock-p15 ([…], SEQ ID NO:80—the p431 peptide fused to p15).
(§2) Spleens were harvested 10 days after the immunization and splenocytes were cultured with p15 (25 μg/ml) for 3 days. Cell proliferation and IFNγ levels in the supernatants of spleen cell cultures were measured. Results are the average of 3 independent proliferation experiments. Ec27-Ep15* and Ec27-Ep15** are two identical but independent groups in the same experiment.

splenocytes = assay: Proliferation of splenocytes from mice immunized with p15 conjugates, stimulated in vitro with p15; assay type: in vivo; details: spleens 10 days after immunization; p15 25 μg/ml, 3 days
Protocol: as §1, §2

WNV = assay: Protective efficacy of immunization against WNV challenge (mortality); assay type: in vivo, BALB/c mice; details: 3 immunizations; 10^6 pfu WNV; 21 days post challenge; 5 experiments
IFNγ = IFNγ ELISA of spleen and salivary gland cell cultures after vaccination; assay type: in vivo, BALB/c mice; details: 10 days after single immunization; for IFNγ secretion of spleen cells stimulated in vitro with p458: 3 d stimulation with p458
IL-4 = IL-4 ELISA of spleen cell cultures after vaccination; assay type: in vivo, BALB/c mice; details: spleen cell cultures of immunized mice
MCMV gB DNA = assay: PCR of MCMV gB DNA in salivary glands of immunized, MCMV-challenged mice; assay type: in vivo, BALB/c mice; details: day 28 after MCMV challenge
[4] = tested on: IFNγ-positive spleen cells; assay: FACS intracellular IFNγ staining of spleen cells after vaccination; assay type: in vivo, BALB/c mice; details: 7 days after one immunization; 5 days re-stimulation with 89pep
Protocol: For phenotypic analysis, spleen and salivary gland mononuclear cells of MCMV-infected and naïve mice were cultured as described above and were stained for CD8 and CD4, IFNγ and IL-5 using directly-labeled antibodies (PharMingen, San Diego, Calif.). Intracellular cell staining (ICCS) for IFNγ, IL-4 and IL-5 was performed using PharMingen's Cytofix/Cytoperm Plus kit with GolgiPlug (containing Brefeldin A) according to the manufacturer's instructions. Briefly, GolgiPlug was added to the 8 h-incubated immune cell cultures (established as described above, with or w/o peptide stimulation). After the additional 6 h of incubation in the incubator cells (minimum 10^6 per sample) were harvested, washed in PBS supplemented with 2% FBS and 0.09% Sodium azide, and incubated in 50 μl of FC blocker, labeled with anti-CD4 and anti-CD8 surface markers. Then cells were fixed, permeabilized and treated with anti-IFNγ, anti-IL-4 or anti-IL-5 antibodies for intracellular cytokine detection. Stained cells were immediately analyzed on a FACSCalibur flow cytometer (Becton-Dickinson, Mansfield, Mass.) and 50,000 to 100,000 events/sample were acquired and analyzed with CellQuest software.
We characterized the nature of cells secreting the IFNγ by flow cytometry. Mice were immunized once with the different peptides and an additional group was infected with MCMV. Seven days later, spleens were removed and cell suspensions were cultured for 5 days with or without 89pep. […] Infection with MCMV and re-stimulation with 89pep induced the highest percentage of IFNγ^+CD8^+ T cells (FIG. 5B). Staining was specific to IFNγ since no CD8^+IL-4^+ or CD8^+IL-5^+ cells were observed.

[5] = tested on: P815 cells pulsed with the 89pep; assay: Cytotoxic T cell assay of spleen cell cultures after vaccination; assay type: in vivo, BALB/c mice; details: spleens 7 d after one immunization, 6 days re-stimulation with 89pep; P815 loaded with 89pep
Protocol: The cytotoxic activity against the MCMV 89pep was assessed in a 4-h cytotoxic assay using the CytoTox 96 non-radioactive, colorimetric-based kit (Promega, Madison, Wis.), according to manufacturer instructions. This assay is based on the quantitative measurement of lactate dehydrogenase, a stable cytosolic enzyme that is released upon cell lysis. Spleen cell suspensions from immunized mice, prepared as described above, were re-stimulated in vitro for 6 days with 89pep (10 μg/ml) and rhIL-2 (25 IU/ml) from day 2. Target cells for the lysis assay were P815 cells (mastocytoma, H-2^d). P815 were either non-pulsed or pulsed with 89pep (1 μg/ml) for 2 h and then washed before incubation with effector cells. In all experiments shown, the spontaneous release was less than 25% of maximal release. Each point in a lysis assay represents the average of triplicate values. The range of the triplicates was within 5% of their mean.
We also investigated whether the CD8^+IFNγ^+ cells induced by the p458-89pep were able to lyse specifically 89pep-loaded target cells. Mice were immunized once and 7 d later, spleens were harvested and re-stimulated with 89pep. Six days later, lytic activity was assayed on P815 (H-2^d) loaded with the 89pep. […]

[6] = tested on: sera from WNV-exposed human subjects; assay: ELISA recognition of WNV peptides by human sera; assay type: binding; details: ELISA, peptide as antigen
Protocol: Sera from WNV-exposed and non-exposed human subjects was assayed for antibodies recognizing the novel WNV peptide antigens, p15 (SEQ ID NO:11) and p17 (SEQ ID NO:21). FIG. 17 presents the results of an ELISA test in which the p15 and p17 served as the antigen, human sera were used as the primary antibody and HRP-conjugated anti-human Abs were used as the secondary antibody. RLU are the relative luminescence units produced by HRP activity on the luminal substrate.
Sera S2 and S6 are from human that were not infected with WNV while sera S1, S3-S5 and S7 are from human that had history of WNV infection.

Nc1nc(O)c2ncn(COC(CO)CO)c2n1 [GCV, Gancyclovir]
CMV load at the salivary gland (MCMV-DNA PCR) (MCMV [1]): did not suffice for therapy

EGDEATGANI-KVALEAYPHFHPTNL (EGDEATGANIKVALEAYPHFHPTNL) [control-89pep]
Effect of immunization on salivary gland viral load (MCMV [2]; day 28 after MCMV challenge): did not affect the viral load

FNNFTVSFWLRVPKVSASHLEYPHFMPTNL [TTp30-89pep]
CD8+IFNγ+ cells in salivary gland [3]: CD8^+IFNγ^+ cells were observed
Effect of immunization on salivary gland viral load (MCMV [2]; day 28 after MCMV challenge): reduced viral load on day 28 by two fold; also recorded: failed to eliminate infectious virus on day 28; also recorded: contained infectious virus on day 28 post challenge
Effect of immunization on salivary gland viral load (MCMV [2]; days 14 and 21 after MCMV challenge): did not affect viral load on days 14 and 21

KKARVEDALHATRAAVEEGVLVTVNPFVSVATANS [Ec27-p15]
IFN-γ secretion of spleen cells in the presence of p15 (IFN-γ): more effective than p15 alone
Proliferation of spleen cells in the presence of p15 (splenocytes): more effective than p15 alone

NEDQKIGIEIIKRALKI [p458]
Mortality (% deaths) (WNV): (57%)
Mortality (dead of total) (WNV): 4/7
IFNγ secretion of spleen cells stimulated in vitro with p458 (IFNγ): high levels of IFNγ
IL-4 levels after Con-A stimulation in vitro (IL-4): 184 pg/mL

NEDQKIGIEIIKRALKIYPHFHPTNL [p458-89pep]
CD8+IFNγ+ cells in salivary gland [3]: larger than that of the other groups
CMV load at the salivary gland (MCMV-DNA PCR) (MCMV [1]): reduced viral load to undetectable levels
Effect of immunization on salivary gland viral load (MCMV [2]; day 28 after MCMV challenge): showed no infectious MCMV in the salivary gland
Infectious MCMV titer in salivary gland (MCMV [2]; day 28 after MCMV challenge): < 2 log10 pfu/0.1 g
IFNγ secretion of spleen cells stimulated in vitro with p458 (IFNγ): high levels of IFNγ
IFNγ secretion of spleen cells re-stimulated in vitro with 89pep (IFNγ; 3 d stimulation, 89pep 10 μg/ml): significantly higher (p<0.05) levels of IFNγ
MCMV gB PCR product in salivary glands (MCMV gB DNA): failed to reveal any gB PCR product
IFNγ+CD4+ T cells in spleen cell cultures [4]: no IFNγ^+CD4^+ T cells
IFNγ+CD8+ T cells in spleen cell cultures [4]: induced IFNγ^+CD8^+ T cells
89pep-specific lytic (CTL) activity [5]: lysed the target cells
IL-4 levels after Con-A stimulation in vitro (IL-4): 317 pg/mL

YIVVGRGEQQINHHWHK [p17]
Recognition by sera of WNV-exposed and unexposed human subjects [6]: specifically recognized by WNV-exposed sera and not by sera from unexposed subjects

YPHFHPTNL [89pep]
CD8+IFNγ+ cells in salivary gland [3]: CD8^+IFNγ^+ cells were observed
CMV load at the salivary gland (MCMV-DNA PCR) (MCMV [1]): did not affect CMV load
Effect of immunization on salivary gland viral load (MCMV [2]; day 28 after MCMV challenge): marginal advantage compared to IFA-immunized mice; also recorded: contained infectious virus on day 28 post challenge
Infectious MCMV titer in salivary gland (MCMV [2]; day 28 after MCMV challenge): 4.5 log10 pfu/0.1 g
IFNγ+CD8+ T cells in spleen cell cultures [4]: very few IFNγ^+CD8^+ T cells
89pep-specific lytic (CTL) activity [5]: No lytic activity was observed
IL-4 levels after Con-A stimulation in vitro (IL-4): 146 pg/mL
